Experiment [1] addresses T1, MelBSt (Salmonella typhimurium, UniProt P30878).
T1 construct: made in house; host or cells: E. coli DW2, right-side-out membrane vesicles
Description: Trp to D2G FRET reversal by melibiose, functional state of solubilized MelBSt. It is filed as biochemical. The following applies: 1.0% by weight, solubilized at 23° C. for 30 minutes. Here is the method:
(§1) So as to investigate functional states of MelB proteins dissolved by amphipathic molecules, Førster resonance energy transfer (FRET) to 2′-(N-dansyl)aminoalkyl-1-thio-β-D-galactopyranoside (D^2G), as a fluorescence ligand, was measured in tryptophan (Trp). […] However, if a protein dissolved by an amphipathic molecule has activity, melibiose substitutes for the coupled D^2G molecule upon addition of the melibiose and thus energy transfer no longer occurs, thereby decreasing fluorescence intensity. Accordingly, the activity of the MelB protein dissolved in DDM or NDT-C11 can be determined by whether reversal of D^2G FRET occurs due to melibiose in Trp. Therefore, the FRET measurement method is an efficient method to measure the membrane protein structural stabilization ability of an amphipathic molecule.
(§2) In particular, a right-side-out (RSO) membrane vesicle was prepared by osmotic lysis of an E. coli DW2 cell containing MelBSt or MelBEc and re-suspended with 100 mM KPi (pH 7.5), followed by storing at −80° C. D^2G was provided by H. Ronald Kaback and Gerard Leblanc. A protein concentration of an RSO membrane vesicle in 100 mM KPi, pH 7.5, and 50 mM NaCl was 1 mg/ml concentration. […] An emission wavelength of MelBEc was measured at 465 nm and an emission wavelength of MelBSt was measured at 490 nm. […] Accordingly, fluorescence intensity is decreased. […]

The target in experiment [2] is T2, MelBEc (Escherichia coli, UniProt P02921).
T2 construct: made in house; host or cells: E. coli DW2, right-side-out membrane vesicles
T2 sequence (P02921 whole entry): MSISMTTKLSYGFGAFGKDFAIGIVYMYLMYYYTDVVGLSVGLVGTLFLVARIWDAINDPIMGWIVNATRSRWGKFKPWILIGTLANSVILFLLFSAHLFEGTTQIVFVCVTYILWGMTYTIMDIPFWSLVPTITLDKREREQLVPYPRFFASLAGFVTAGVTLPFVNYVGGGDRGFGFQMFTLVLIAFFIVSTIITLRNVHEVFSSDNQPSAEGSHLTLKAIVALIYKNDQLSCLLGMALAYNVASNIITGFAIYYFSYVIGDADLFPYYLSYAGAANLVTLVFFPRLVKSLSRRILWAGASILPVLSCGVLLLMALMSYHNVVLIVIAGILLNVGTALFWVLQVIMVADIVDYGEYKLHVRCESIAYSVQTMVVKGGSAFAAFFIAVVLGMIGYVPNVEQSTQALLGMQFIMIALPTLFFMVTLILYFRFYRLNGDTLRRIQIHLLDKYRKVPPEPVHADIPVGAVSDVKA
The experiment can be described thus: Trp to D2G FRET reversal by melibiose, functional state of solubilized MelBEc. The format is biochemical. Conditions: 1.0% by weight, solubilized at 23° C. for 30 minutes. Here is the method:
as §1, §2

The subject of experiment [3] is leucine transporter (LeuT). The experiment can be described thus: LeuT stability by [3H]-Leu scintillation proximity assay (SPA). It is filed as biochemical, Aquifex aeolicus. Here is the method:
Experiments to measure the structural stability of a leucine transporter (LeuT) protein by TDTs or NDTs were conducted. LeuT protein activity was measured by scintillation proximity assay (SPA) utilizing [^3H]-Leu as a ligand. The concentration of TDTs, NDTs, or DDM was (a) CMC+0.04% by weight, or (b) CMC+[…].
In particular, the LeuT stability measurement experiments were conducted according to the following methods. Depending upon the results of UapA and MelB, only TDT-C11, TDT-C12, NDT-C10, NDT-C11 and NDT-C12 among the amphipathic molecules according to the present invention were selectively used. In accordance with a method disclosed in a paper published by G. Deckert, et al. (Nature 1998, 392, 353-358), a wild-type leucine transporter (LeuT) was purified from Aquifex aeolicus. LeuT is expressed in E. coli C41 (DE3) transformed with pET16b encoding a C-terminal 8×His-tagged transporter (the expression plasmid was provided by Dr E. Gouaux, Vollum Institute, Portland, Oreg., USA). In summary, the […] protein was isolated and solubilized with 1.0% by weight of DDM, followed by binding the protein to a Ni^2+-NTA resin (Life Technologies, Denmark) and eluting the same with 20 mM Tris-HCl (pH 8.0), 1 mM NaCl, 199 mM KCl, 0.05% DDM, and 300 mM imidazole. Next, about 1.5 mg/ml of a protein stock was 10-fold diluted with a buffer in which DDM and imidazole are absent, but TDTs, NDTs, or DDM (control) is supplemented such that a final concentration becomes CMC+0.04% by weight or CMC+0.2% by weight. Protein samples were stored at room temperature and centrifuged at a predetermined time. To evaluate protein activity, [^3H]-Leu coupling was measured using scintillation proximity assay (SPA) (M. Quick et al., Proc. Natl, Acad. Sci. U.S.A. 2007, 104, 3603-3608). 5 μL of each protein sample dissolved in a buffer that contained 200 mM NaCl and each test compound was analyzed. SPA reaction was carried out in the presence of 20 nM [^3H]-Leu and copper chelate (His-Tag) YSi beads (both purchased from PerkinElmer, Denmark). [^3H]-Leu coupling was measured by means of a MicroBeta liquid scintillation counter (PerkinElmer).
For orientation: Scintillation proximity formats need no separation of bound from free tracer.

Structures are written as SMILES.

T1 sequence (P30878 whole entry): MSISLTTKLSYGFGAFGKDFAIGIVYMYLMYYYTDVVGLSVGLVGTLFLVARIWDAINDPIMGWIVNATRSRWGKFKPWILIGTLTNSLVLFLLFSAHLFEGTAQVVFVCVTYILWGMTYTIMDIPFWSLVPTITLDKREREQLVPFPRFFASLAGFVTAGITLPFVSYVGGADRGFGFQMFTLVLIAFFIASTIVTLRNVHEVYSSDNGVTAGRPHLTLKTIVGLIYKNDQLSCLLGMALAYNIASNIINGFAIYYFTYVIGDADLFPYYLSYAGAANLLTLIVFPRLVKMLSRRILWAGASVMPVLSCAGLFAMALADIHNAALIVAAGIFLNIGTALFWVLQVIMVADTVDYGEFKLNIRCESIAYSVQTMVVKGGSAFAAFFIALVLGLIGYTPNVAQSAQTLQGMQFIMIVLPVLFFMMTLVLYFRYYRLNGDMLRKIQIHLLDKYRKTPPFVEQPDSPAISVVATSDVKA

Consider `CCCCCCCCCCCCOC1OC(CO)C(OC2OC(CO)C(O)C(O)C2O)C(O)C1O` [DDM, n-dodecyl-β-D-maltopyranoside, reference compound], for which, in experiment [1], the “Functional state of solubilized MelBSt (melibiose binding, FRET)” value is “enable production of functional MelBSt proteins”. For the same compound, the “Functional state of solubilized MelBEc (melibiose binding, FRET)” value in experiment [2] is listed as “completely lost”.
For the compound `CCCCCCCCCCCC(CCCCCCCCCCC)COCC(CO[C@@H]1OC(CO)[C@@H](O)C(O)C1O)(CO[C@@H]1OC(CO)[C@@H](O)C(O)C1O)CO[C@@H]1OC(CO)[C@@H](O)C(O)C1O` (stereo partly drawn) [NDT-C11], the “Functional state of solubilized MelBSt (melibiose binding, FRET)” value in experiment [1] was “enable production of functional MelBSt proteins”. For the same compound, in experiment [2], the “Functional state of solubilized MelBEc (melibiose binding, FRET)” value is given as “effectively maintained”. In experiment [3] (CMC+0.04% by weight, room temperature), the “LeuT protein stabilization ability ([3H]-Leu binding)” value was “most excellent”. Also, the “LeuT protein stabilization, overall comparison” value in experiment [3] (conclusion) is “superior to DDM and similar to MNG-3”.
